From publication PMC6003355 (2018)

Test system: WT T. oceani 112 ilvE RNA (RNA, riboswitch) GGAAGUGUACCUUAGGGUUCCGGCCAUAAGGCGUCAGCGACCGAGCGGUACAAUCCGGGGAAACCCGGAACACCGUGAGCAUAAAAGGCUCCAGCGGCAAGUUCCUAAAAGA
Assay: in-line probing
Settings: apparent; ppGpp 200 pM to 5 µM

With `Nc1nc2c(ncn2[C@@H]2O[C@H](COP(=O)(O)OP(=O)(O)O)[C@@H](OP(=O)(O)OP(=O)(O)O)[C@H]2O)c(=O)[nH]1` the KD was ~ 10 nM.
